In patent US20110230471A1, “BENZONAPHTYRIDINE COMPOUNDS AS INHIBITORS OF AUTOTAXIN” (MERCK PATENT GESELLSCHAFT MIT BESCHRANKTER HAFTUNG, priority 2008, published 2011):

Each compound was assayed against T1, recombinant autotaxin (Homo sapiens, UniProt Q13822) (assay: Autotaxin test (enzyme test), Amplex Red). Conditions: Autotaxin inhibition (enzyme test), TABLE 1 (A compounds); substrate LPC 75 μM.
T1 construct: made in house; host or cells: Hi5 insect cells (baculovirus)
Format: biochemical
Protocol: The autotaxin activity is measured indirectly using Amplex Red reagent. Amplex Red is measured here as fluorogenic indicator for the H2O2 formed. In detail, autotaxin converts the substrate lysophosphatidylcholine (LPC) into phosphocholine and lysophosphatidylic acid (LPA). After this reaction, the phosphocholine is reacted with alkaline phosphatase to give inorganic phosphate and choline. In the next step, choline is oxidised by choline oxidase to give betaine, with formation of H2O2. H2O2 reacts with Amplex Red reagent in the presence of peroxidase (horseradish peroxidase) in a 1:1 stoichiometry and forms the highly fluorescent resorufin. The fluorescence is measured in a reaction-dependent kinetic mode in order that fluorescent signals from possible other fluorescent substances which are not involved in the reaction can be corrected out.
1.5 μl of a standard solution or of the test substances (substances with the name A(n))in individual concentrations dissolved in 20 mM Hepes pH 7.2 with a maximum of 7.7% of DMSO are pre-incubated together with 10 μl (16 ng) of highly purified recombinant autotaxin in a black microtitre plate provided with 384 wells at 22° C. for 30 min. The reaction is then initiated by addition of 5 μl of L-α-lysophosphatidylcholine (LPC), where the final concentration of LPC is 75 μM. The mixture is incubated at 37° C. for 90 min. After the incubation, Amplex Red reagent, peroxidase (horseradish peroxidase) and choline oxidase is added, and the fluorescence is immediately measured at 612 nm with excitation of 485 nm in a “Tecan Ultra multimode” reader. The activity of autotaxin is calculated indirectly via detection of the H2O2 formed.
• Microtitre plate: PS microplate, 384 wells, small volume, black Corning, Cat#3677 • Protein: recombinant autotaxin (Baculovirale Hi5 Expression) • Substrate: L-α-lysophosphatidylcholine (chicken egg)); Avanti Polar Lipids # 830071 P • Standard: C14 LPA, Avanti Polar Lipids, Cat# 857120P • Detection reagent: Amplex Red reagent; Invitrogen # A12222; dissolved in 1.923 ml of DMSO peroxidase type VI-A (horseradish) from Sigma # P6782; dissolved in 7.45 ml of test buffer, choline oxidase; Sigma # C5896; dissolved in 2.47 ml of test buffer • Detection reagent mix: 1:100 dilution of Amplex Red reagent in test buffer • Test buffer: 200 mM Tris HCl, Merck, Cat # 1.08219, pH 7.9, 0.1% of BSA, lipid-free, Roche Cat#775835

| SMILES | IC50 |
| --- | --- |
| COc1ccc(Cl)cc1NC(=O)CN1CCc2nc3ccccc3c(C(=O)N3CCNCC3)c2C1 [Compound A27, N-(5-chloro-2-methoxyphenyl)-2-[10-(piperazine-1-carbonyl)-3,4-dihydro-1H-benzo[b][1,6]naphthyridin-2-yl]acetamide] | 100 to 1000 nM |
| COc1ccc(Cl)cc1NC(=O)CN1CCc2nc3ccccc3c(C(=O)N3CCN(C4CCCC4)CC3)c2C1 [Compound A28, N-(5-Chloro-2-methoxyphenyl)-2-[10-(4-cyclopentylpiperazine-1-carbonyl)-3,4-dihydro-1H-benzo[b][1,6]naphthyridin-2-yl]acetamide] | 100 to 1000 nM |
| COc1ccc(C)cc1NC(=O)CN1CCc2nc3ccccc3c(C(=O)N3CCOCC3)c2C1 [Compound A12, N-(2-Methoxy-5-methylphenyl)-2-[10-(morpholine-4-carbonyl)-3,4-dihydro-1H-benzo[b][1,6]naphthyridin-2-yl]acetamide] | 100 to 1000 nM |
| CCOc1ccc(Cl)cc1NC(=O)CN1CCc2nc3ccccc3c(C(=O)N3CCOCC3)c2C1 [Compound A41, N-(5-Chloro-2-ethoxyphenyl)-2-[10-(morpholine-4-carbonyl)-3,4-dihydro-1H-benzo[b][1,6]naphthyridin-2-yl]acetamide] | > 1000 nM |
| COc1ccc(Cl)cc1NC(=O)CN1CCc2nc3ccccc3c(C(=O)N3CCOCC3)c2C1 [Compound A7, N-(5-chloro-2-methoxyphenyl)-2-[10-(morpholine-4-carbonyl)-3,4-dihydro-1H-benzo[b][1,6]naphthyridin-2-yl]acetamide] | < 100 nM |
| O=C(CN1CCc2nc3ccccc3c(C(=O)N3CCOCC3)c2C1)Nc1cc(Cl)cc2ccoc12 [Compound A48, N-(5-Chlorobenzofuran-7-yl)-2-[10-(morpholine-4-carbonyl)-3,4-dihydro-1H-benzo[b][1,6]naphthyridin-2-yl]acetamide] | 100 to 1000 nM |
| CN1CCN(C(=O)c2c3c(nc4ccccc24)CCN(C(=O)CCc2ccc(Cl)cc2F)C3)CC1 [Compound A33, 3-(4-Chloro-2-fluorophenyl)-1-[10-(4-methylpiperazine-1-carbonyl)-3,4-dihydro-1H-benzo[b][1,6]naphthyridin-2-yl]propan-1-one] | > 1000 nM |
| COc1ccc(Cl)cc1NC(=O)CN1CCc2nc3c(Cl)cccc3c(C(=O)N3CCOCC3)c2C1 [Compound A16, N-(5-Chloro-2-methoxyphenyl)-2-[6-chloro-10-(morpholine-4-carbonyl)-3,4-dihydro-1H-benzo[b][1,6]naphthyridin-2-yl]acetamide] | 100 to 1000 nM |
| CCc1ccc2c(C(=O)N3CCOCC3)c3c(nc2c1)CCN(CC(=O)Nc1cc(Cl)ccc1OC)C3 [Compound A17, N-(5-Chloro-2-methoxyphenyl)-2-[7-ethyl-10-(morpholine-4-carbonyl)-3,4-dihydro-1H-benzo[b][1,6]naphthyridin-2-yl]acetamide] | 100 to 1000 nM |
| Cc1ccc(Cl)cc1NC(=O)CN1CCc2nc3ccccc3c(C(=O)N3CCOCC3)c2C1 [Compound A11, N-(5-Chloro-2-methylphenyl)-2-[10-(morpholine-4-carbonyl)-3,4-dihydro-1H-benzo[b][1,6]naphthyridin-2-yl]acetamide] | > 1000 nM |
| COc1ccc(-c2ccccc2)cc1NC(=O)CN1CCc2nc3ccccc3c(C(=O)N3CCOCC3)c2C1 [Compound A14, N-(4-Methoxybiphenyl-3-yl)-2-[10-(morpholine-4-carbonyl)-3,4-dihydro-1H-benzo[b][1,6]naphthyridin-2-yl]acetamide] | 100 to 1000 nM |

More lines, now with the values ahead:

| IC50 | SMILES |
| --- | --- |
| > 1000 nM | O=C(CN1CCc2nc3ccccc3c(C(=O)N3CCOCC3)c2C1)Nc1cccc(Cl)c1 [Compound A9, N-(3-Chlorophenyl)-2-[10-(morpholine-4-carbonyl)-3,4-dihydro-1H-benzo-[b][1,6]naphthyridin-2-yl]acetamide] |
| < 100 nM | CCN1CCN(C(=O)c2c3c(nc4ccccc24)CCN(CC(=O)Nc2cc(Cl)ccc2OC)C3)CC1 [Compound A23, N-(5-Chloro-2-methoxyphenyl)-2-[10-(4-ethylpiperazine-1-carbonyl)-3,4-dihydro-1H-benzo[b][1,6]naphthyridin-2-yl]acetamide] |
| < 100 nM | COc1ccc(Br)cc1NC(=O)CN1CCc2nc3ccccc3c(C(=O)N3CCN(CCO)CC3)c2C1 [Compound A69, N-(5-Bromo-2-methoxyphenyl)-2-{10-[4-(2-hydroxyethyl)piperazine-1-carbonyl]-3,4-dihydro-1H-benzo[b][1,6]naphthyridin-2-yl}acetamide] |
| 100 to 1000 nM | COc1ccc(Cl)cc1NC(=O)CN1CCc2nc3ccccc3c(C(=O)N3CCN(C(=O)OCc4ccccc4)CC3)c2C1 [Compound A25, 4-{2-[(5-Chloro-2-methoxyphenylcarbamoyl)methyl]-1,2,3,4-tetrahydrobenzo[b][1,6]naphthyridine-10-carbonyl}piperazine-1-carboxylic acid benzyl ester] |
| > 1000 nM | O=C(CN1CCc2nc3ccccc3c(C(=O)N3CCN(CCO)CC3)c2C1)Nc1ccc(Cl)c(Cl)c1 [Compound A76, N-(3,4-Dichlorophenyl)-2-{10-[4-(2-hydroxyethyl)piperazine-1-carbonyl]-3,4-dihydro-1H-benzo[b][1,6]naphthyridin-2-yl}acetamide] |
| > 1000 nM | O=C(CN1CCc2nc3ccccc3c(C(=O)N3CCN(CCO)CC3)c2C1)Nc1ccc(N2CCOCC2=O)c(Cl)c1 [Compound A65, N-[3-Chloro-4-(3-oxomorpholin-4-yl)phenyl]-2-{10-[4-(2-hydroxyethyl)-piperazine-1-carbonyl]-3,4-dihydro-1H-benzo[b][1,6]naphthyridin-2-yl}-acetamide] |
| 100 to 1000 nM | COc1c(Cl)cc(Cl)cc1NC(=O)CN1CCc2nc3ccccc3c(C(=O)N3CCN(CCO)CC3)c2C1 [Compound A80, N-(3,5-Dichloro-2-methoxyphenyl)-2-{10-[4-(2-hydroxyethyl)piperazine-1-carbonyl]-3,4-dihydro-1H-benzo[b][1,6]naphthyridin-2-yl}acetamide] |
| 100 to 1000 nM | O=C(CN1CCc2nc3ccccc3c(C(=O)N3CCN(CCO)CC3)c2C1)Nc1cc(Cl)ccc1F [Compound A78, N-(5-Chloro-2-fluorophenyl)-2-{10-[4-(2-hydroxyethyl)piperazine-1-carbonyl]-3,4-dihydro-1H-benzo[b][1,6]naphthyridin-2-yl}acetamide] |

Same assay, conditions: Autotaxin inhibition (enzyme test), TABLE 2 (B compounds); substrate LPC 75 μM

| IC50 | SMILES |
| --- | --- |
| > 1000 nM | COc1ccc(Cl)cc1-c1nc(CN2CCc3nc4ccccc4c(C(=O)NC4CCN(C)CC4)c3C2)no1 [Compound B20, N-(1-Methylpiperidin-4-yl)-2-[5-(5-chloro-2-methoxyphenyl)-1,2,4-oxadiazol-3-ylmethyl]-1,2,3,4-tetrahydrobenzo[b][1,6]naphthyridine-10-carboxamide] |
| > 1000 nM | CNC(=O)C(NC(=O)CN1CCc2nc3ccccc3c(C(=O)N3CCN(CCO)CC3)c2C1)c1ccc(Cl)cc1 (stereo not shown) [Compound B2, 2-(4-Chlorophenyl)-2-(2-{10-[4-(2-hydroxyethyl)piperazine-1-carbonyl]-3,4-dihydro-1H-benzo[b][1,6]naphthyridin-2-yl}acetylamino)-N-methylacetamide] |
| > 1000 nM | COc1ccc(Cl)cc1NC(=O)CN1CCc2nc3ccccc3c(C(=O)NCCF)c2C1 [Compound B42, N-(2-Fluoroethyl)-2-[(5-chloro-2-methoxyphenylcarbamoyl)methyl]-1,2,3,4-tetrahydrobenzo[b][1,6]naphthyridine-10-carboxamide] |
| > 1000 nM | COc1ccc(Cl)cc1/C=C/C(=O)N1CCc2nc3ccccc3c(C(=O)NC3CCN(C)CC3)c2C1 [Compound B40, N-(1-Methylpiperidin-4-yl)-2-[(E)-3-(5-chloro-2-methoxyphenyl)acryloyl]-1,2,3,4-tetrahydrobenzo[b][1,6]naphthyridine-10-carboxamide] |
| > 1000 nM | O=C(CN1CCc2nc3ccccc3c(C(=O)N3CCOCC3)c2C1)Nc1cc(Cl)ccc1OC(F)(F)F [Compound B5, N-(5-Chloro-2-trifluoromethoxyphenyl)-2-[10-(morpholine-4-carbonyl)-3,4-dihydro-1H-benzo[b][1,6]naphthyridin-2-yl]acetamide] |
| 100 to 1000 nM | COc1ccc(Cl)cc1NC(=O)CN1CCc2nc3ccccc3c(C(=O)Nc3ccc4[nH]nnc4c3)c2C1 [Compound B22, N-(1H-Benzotriazol-5-yl)-2-[(5-chloro-2-methoxyphenylcarbamoyl)methyl]-1,2,3,4-tetrahydrobenzo[b][1,6]naphthyridine-10-carboxamide] |
